In PubChem BioAssay AID228 (DTP/NCI, 2004):
“And” between values parts separate entries of the source, which are not always exact repeats. Equal entries are not always repeated. Inconclusive results are not listed.

Test system: BDF1 mice, Friend leukemia sc, tumor weight T/C
Experiment: NCI In Vivo Anticancer Drug Screen. Data for tumor model Friend Virus Leukemia (Solid) (subcutaneous) in B6D2F1 (BDF1) mice
Settings: endpoint: mean tumor weight, higher = larger tumour
Protocol: The antitumor activity of compounds was measured in mice bearing transplantable tumors. Survival or tumor size were measured and the results are expressed as the measurement made in the treated group (T) divided by the measurement made in the vehicle treated control group (C). The tumor model used in this assay is Friend Virus Leukemia (Solid) (subcutaneous) in B6D2F1 (BDF1) mice

[1] = dose: 15.0 mg/kg/injection, schedule: Q01DX011 (ip), vehicle: carboxymethylcellulose (CMC)
[2] = dose: 30.0 mg/kg/injection, schedule: Q01DX011 (ip), vehicle: carboxymethylcellulose (CMC)
[3] = dose: 125.0 mg/kg/injection, schedule: Q01DX011 (ip), vehicle: carboxymethylcellulose (CMC)
[4] = dose: 250.0 mg/kg/injection, schedule: Q01DX011 (ip), vehicle: carboxymethylcellulose (CMC)
[5] = dose: 500.0 mg/kg/injection, schedule: Q01DX011 (ip), vehicle: carboxymethylcellulose (CMC)
[6] = dose: 25.0 mg/kg/injection, schedule: Q01DX011 (sc), vehicle: steriod suspending solution
[7] = dose: 50.0 mg/kg/injection, schedule: Q01DX011 (sc), vehicle: steriod suspending solution
[8] = dose: 100.0 mg/kg/injection, schedule: Q01DX011 (sc), vehicle: steriod suspending solution
[9] = dose: 31.0 mg/kg/injection, schedule: Q01DX011 (ip), vehicle: carboxymethylcellulose (CMC)
[10] = dose: 62.0 mg/kg/injection, schedule: Q01DX011 (ip), vehicle: carboxymethylcellulose (CMC)
[11] = dose: 50.0 mg/kg/injection, schedule: Q01DX011 (ip), vehicle: saline
[12] = dose: 62.5 mg/kg/injection, schedule: Q01DX011 (ip), vehicle: carboxymethylcellulose (CMC)
[13] = dose: 300.0 mg/kg/injection, schedule: Q01DX011 (sc), vehicle: steriod suspending solution
[14] = dose: 10.0 mg/kg/injection, schedule: Q01DX011 (ip), vehicle: carboxymethylcellulose (CMC)

In the case of Clc1ccc(N2CCN(CCCN3CCN(c4cccc(Cl)c4)CC3)CC2)cc1, the T/C (dose: 7.5 mg/kg/injection, schedule: Q01DX011 (ip), vehicle: carboxymethylcellulose (CMC)) is reported as 93 % of control, the T/C [1] is reported as 85 % of control and the T/C [2] is reported as 62 % of control.

For O=CCC(O)C(O)C(O)CO (stereo not drawn), the T/C [3] was 89 % of control, the T/C [4] was 83 % of control and the T/C [5] was 48 % of control. The T/C (dose: 1000.0 mg/kg/injection, schedule: Q01DX011 (ip), vehicle: carboxymethylcellulose (CMC)) was 63 % of control.

With C[C@]12C=CC(=O)C=C1CC[C@@H]1[C@@H]2[C@@H](O)C[C@@]2(C)[C@H]1CC[C@]2(O)C(=O)COC(=O)C1CCCC1 the T/C (dose: 0.12 mg/kg/injection, schedule: Q01DX011 (sc), vehicle: steriod suspending solution) was 103 % of control, the T/C (dose: 0.25 mg/kg/injection, schedule: Q01DX011 (sc), vehicle: steriod suspending solution) was 102 % of control and the T/C (dose: 0.5 mg/kg/injection, schedule: Q01DX011 (sc), vehicle: steriod suspending solution) was 95 % of control. The T/C (dose: 3.0 mg/kg/injection, schedule: Q01DX011 (sc), vehicle: steriod suspending solution) was 46 % of control, the T/C (dose: 6.0 mg/kg/injection, schedule: Q01DX011 (sc), vehicle: steriod suspending solution) was 47 % of control and the T/C (dose: 6.3 mg/kg/injection, schedule: Q01DX011 (sc), vehicle: steriod suspending solution) was 38 % of control. For the same compound, the T/C (dose: 12.0 mg/kg/injection, schedule: Q01DX011 (sc), vehicle: steriod suspending solution) was 33 % of control, the T/C (dose: 12.5 mg/kg/injection, schedule: Q01DX011 (sc), vehicle: steriod suspending solution) was 25 % of control and the T/C [6] was 10 % of control and 24 % of control. The T/C [7] was 8 % of control and 14 % of control and the T/C [8] was 7 % of control.

For C[N+](C)(C)c1ncnc2nc[nH]c12, the T/C [9] was 106 % of control, the T/C [10] was 43 % of control and the T/C [3] was 47 % of control.

With NC(=O)n1cccn1 the T/C (dose: 25.0 mg/kg/injection, schedule: Q01DX011 (ip), vehicle: other) was 107 % of control, the T/C (dose: 50.0 mg/kg/injection, schedule: Q01DX011 (ip), vehicle: other) was 120 % of control and the T/C (dose: 100.0 mg/kg/injection, schedule: Q01DX011 (ip), vehicle: other) was 78 % of control. The T/C (dose: 150.0 mg/kg/injection, schedule: Q01DX011 (ip), vehicle: other) was 13 % of control and the T/C (dose: 200.0 mg/kg/injection, schedule: Q01DX011 (ip), vehicle: other) was 28 % of control.

O=[As]O was tested, and the T/C (dose: 1.6 mg/kg/injection, schedule: Q01DX011 (ip), vehicle: carboxymethylcellulose (CMC)) was 78 % of control, the T/C (dose: 3.25 mg/kg/injection, schedule: Q01DX011 (ip), vehicle: carboxymethylcellulose (CMC)) was 77 % of control and the T/C (dose: 6.5 mg/kg/injection, schedule: Q01DX011 (ip), vehicle: carboxymethylcellulose (CMC)) was 98 % of control. For the same compound, the T/C (dose: 13.0 mg/kg/injection, schedule: Q01DX011 (ip), vehicle: carboxymethylcellulose (CMC)) was 46 % of control.

For NC(N)=N/N=C/C=N/N=C(N)N, the T/C [11] was 189 % of control.

In the case of COc1ccc2c3c1OC1C(O)C=CC4C(C2)N(C)CCC341 (stereo not drawn), the T/C (dose: 37.5 mg/kg/injection, schedule: Q01DX011 (ip), vehicle: saline) is reported as 93 % of control, the T/C [11] is reported as 119 % of control and the T/C (dose: 75.0 mg/kg/injection, schedule: Q01DX011 (ip), vehicle: saline) is reported as 108 % of control.

CN(C)N=Nc1n[nH]nc1C(N)=O was tested, and the T/C (dose: 250.0 mg/kg/injection, schedule: Q01DX011 (ip), vehicle: saline) was 75 % of control and the T/C (dose: 375.0 mg/kg/injection, schedule: Q01DX011 (ip), vehicle: saline) was 40 % of control.

With CC(=O)Nc1ccc(NC(=O)c2ccc([As](O)O)cc2)cc1 the T/C [2] was 111 % of control, the T/C (dose: 60.0 mg/kg/injection, schedule: Q01DX011 (ip), vehicle: carboxymethylcellulose (CMC)) was 109 % of control and the T/C (dose: 120.0 mg/kg/injection, schedule: Q01DX011 (ip), vehicle: carboxymethylcellulose (CMC)) was 101 % of control.

CC1(C)N=C(N)N=C(N)N1c1cccc(Cl)c1 was tested, and the T/C (dose: 2.3 mg/kg/injection, schedule: Q01DX011 (ip), vehicle: carboxymethylcellulose (CMC)) was 91 % of control, the T/C (dose: 4.6 mg/kg/injection, schedule: Q01DX011 (ip), vehicle: carboxymethylcellulose (CMC)) was 104 % of control and the T/C (dose: 9.2 mg/kg/injection, schedule: Q01DX011 (ip), vehicle: carboxymethylcellulose (CMC)) was 108 % of control.

For c1ccc2c(c1)ccc1cc3c(ccc4ccccc43)cc12, the T/C [1] was 90 % of control, the T/C [9] was 86 % of control and the T/C [12] was 39 % of control. For the same compound, the T/C (dose: 63.0 mg/kg/injection, schedule: Q01DX011 (ip), vehicle: carboxymethylcellulose (CMC)) was 93 % of control, the T/C [4] was 52 % of control and the T/C [5] was 29 % of control.

With C[C@]12CCC(=O)C=C1CC[C@@H]1[C@@H]2[C@@H](O)C[C@@]2(C)[C@H]1CC[C@]2(O)C(=O)COC(=O)c1ccc([N+](=O)[O-])cc1Cl the T/C [7] was 69 % of control, the T/C [8] was 58 % of control and the T/C (dose: 200.0 mg/kg/injection, schedule: Q01DX011 (sc), vehicle: steriod suspending solution) was 55 % of control. For the same compound, the T/C (dose: 400.0 mg/kg/injection, schedule: Q01DX011 (sc), vehicle: steriod suspending solution) was 35 % of control.

With O=NN1CCN(N=O)CC1 the T/C (dose: 8.3 mg/kg/injection, schedule: Q01DX011 (ip), vehicle: carboxymethylcellulose (CMC)) was 94 % of control, the T/C (dose: 16.7 mg/kg/injection, schedule: Q01DX011 (ip), vehicle: carboxymethylcellulose (CMC)) was 120 % of control and the T/C (dose: 23.5 mg/kg/injection, schedule: Q01DX011 (ip), vehicle: carboxymethylcellulose (CMC)) was 95 % of control. The T/C (dose: 26.0 mg/kg/injection, schedule: Q01DX011 (ip), vehicle: carboxymethylcellulose (CMC)) was 85 % of control.

CC(=O)O[C@]1(C(C)=O)CC[C@H]2[C@@H]3C[C@H](C)C4=CC(=O)C=C[C@]4(C)[C@@]3(F)[C@@H](O)C[C@@]21C was tested, and the T/C [6] was 35 % of control, the T/C (dose: 37.5 mg/kg/injection, schedule: Q01DX011 (sc), vehicle: steriod suspending solution) was 34 % of control and the T/C [13] was 11 % of control.

In the case of CC(=O)[C@H]1CC[C@H]2[C@@H]3CCC4=CC(=O)[C@H](C)C[C@]4(C)[C@@]3(F)[C@@H](O)C[C@]12C, the T/C (dose: 9.5 mg/kg/injection, schedule: Q01DX011 (sc), vehicle: steriod suspending solution) is reported as 71 % of control, the T/C (dose: 19.0 mg/kg/injection, schedule: Q01DX011 (sc), vehicle: steriod suspending solution) is reported as 50 % of control and the T/C (dose: 75.0 mg/kg/injection, schedule: Q01DX011 (sc), vehicle: steriod suspending solution) is reported as 25 % of control and 42 % of control and 46 % of control. The T/C (dose: 150.0 mg/kg/injection, schedule: Q01DX011 (sc), vehicle: steriod suspending solution) was 28 % of control and the T/C [13] was 19 % of control.

O=C(O)C(=O)c1ccc(-c2ccccc2)cc1 was tested, and the T/C [10] was 67 % of control and the T/C [3] was 45 % of control.

For Cc1cc(N(CCCl)CCCl)ccc1C=Nc1ccccc1-c1ccccc1, the T/C (dose: 5.0 mg/kg/injection, schedule: Q01DX011 (ip), vehicle: carboxymethylcellulose (CMC)) was 54 % of control, the T/C [14] was 70 % of control and the T/C (dose: 20.0 mg/kg/injection, schedule: Q01DX011 (ip), vehicle: carboxymethylcellulose (CMC)) was 104 % of control. The T/C (dose: 40.0 mg/kg/injection, schedule: Q01DX011 (ip), vehicle: carboxymethylcellulose (CMC)) was 60 % of control and the T/C (dose: 80.0 mg/kg/injection, schedule: Q01DX011 (ip), vehicle: carboxymethylcellulose (CMC)) was 77 % of control.

CC1(C)CC(C)(c2ccccc2)c2ccccc21 (stereo not drawn) was tested, and the T/C [12] was 68 % of control, the T/C [3] was 70 % of control and the T/C [4] was 67 % of control. The T/C [5] was 25 % of control.

For N#CCSc1ncnc2nc[nH]c12, the T/C (dose: 15.5 mg/kg/injection, schedule: Q01DX011 (ip), vehicle: carboxymethylcellulose (CMC)) was 91 % of control, the T/C [9] was 32 % of control and the T/C [12] was 18 % of control.

For CO/[N+]([O-])=C\C(=O)N/C=C/C(=O)O, the T/C (dose: 1.25 mg/kg/injection, schedule: Q01DX011 (ip), vehicle: carboxymethylcellulose (CMC)) was 103 % of control, the T/C (dose: 2.5 mg/kg/injection, schedule: Q01DX011 (ip), vehicle: carboxymethylcellulose (CMC)) was 105 % of control and the T/C [14] was 61 % of control. The T/C [1] was 53 % of control and the T/C (dose: 25.0 mg/kg/injection, schedule: Q01DX011 (ip), vehicle: carboxymethylcellulose (CMC)) was 52 % of control.
